According to ChEMBL document CHEMBL1201862, “PubChem BioAssay data set” (2004):
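Five concentrations, 48 hours, 96-well plates. GI50 marks 50% less growth.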 Activity calls are given as the source filed them. Cut-off read from the data, not from the text of the source: active = GI50 up to about 1.1 µM and inactive = higher.

Tests used:
Experiment in all cases: growth of human tumour cells (NCI), 48 h
[1] = tested on: A549
[2] = tested on: UACC-257
[3] = tested on: MOLT-4
[4] = tested on: CCRF-CEM
[5] = tested on: LOX IMVI
[6] = tested on: SN12C
[7] = tested on: RPMI-8226
[8] = tested on: SNB-75
[9] = tested on: SNB-19
[10] = tested on: HT-29
[11] = tested on: U-251
[12] = tested on: UO-31
[13] = tested on: OVCAR-8
[14] = tested on: LXFL 529
[15] = tested on: HCT-116
[16] = tested on: NCI/ADR-RES
[17] = tested on: MDA-MB-231
[18] = tested on: BT-549
[19] = tested on: T47D
[20] = tested on: MDA-N

| Structure (SMILES) | GI50 [1] | GI50 [2] | GI50 [3] | GI50 [4] | GI50 [5] | GI50 [6] | GI50 [7] | GI50 [8] | GI50 [9] | GI50 [10] | GI50 [11] | GI50 [12] | GI50 [13] | GI50 [14] | GI50 [15] | GI50 [16] | GI50 [17] | GI50 [18] | GI50 [19] | GI50 [20] |
| --- | --- | --- | --- | --- | --- | --- | --- | --- | --- | --- | --- | --- | --- | --- | --- | --- | --- | --- | --- | --- |
| CN(CC(=O)O)S(=O)(=O)c1ccc(F)cc1 | > 100 µM (inactive) | > 100 µM (inactive) | > 100 µM (inactive) | > 100 µM (inactive) | > 100 µM (inactive) | > 100 µM (inactive) | > 100 µM (inactive) | > 100 µM (inactive) | > 100 µM (inactive) | > 100 µM (inactive) | > 100 µM (inactive) | > 100 µM (inactive) | > 100 µM (inactive) | > 100 µM (inactive) |  |  |  |  |  |  |
| Cc1ccc(NC(=O)c2cccc([N+](=O)[O-])c2O)c([N+](=O)[O-])c1 | 21.6 µM (inactive) | 16.2 µM (inactive) | > 10 µM (inactive) | > 100 µM (inactive) | 11.5 µM (inactive) | 16.5 µM (inactive) | 8.69 µM (inactive) | 13.7 µM (inactive) | 22.4 µM (inactive) | 12.1 µM (inactive) | 14.3 µM (inactive) | 24.1 µM (inactive) | 12.5 µM (inactive) | 13 µM (inactive) | 9.38 µM (inactive) |  |  |  |  |  |
| CC(=O)N(CCN1C(=O)c2ccccc2C1=O)CCN1C(=O)c2ccccc2C1=O | > 100 µM (inactive) | > 100 µM (inactive) | > 100 µM (inactive) | > 100 µM (inactive) | > 100 µM (inactive) | > 100 µM (inactive) | > 100 µM (inactive) | > 100 µM (inactive) | > 100 µM (inactive) |  | > 100 µM (inactive) | > 100 µM (inactive) | > 100 µM (inactive) | > 100 µM (inactive) | > 100 µM (inactive) |  |  |  |  |  |
| C[n+]1cccc(NC(=O)c2ccc(NC(=O)C34CCC(C(=O)Nc5ccc(C(=O)Nc6ccc[n+](C)c6)cc5)(CC3)CC4)cc2)c1 | 22.5 µM (inactive) | 15.7 µM (inactive) | 56.2 µM (inactive) | 15.2 µM (inactive) | 38.5 µM (inactive) | 3.23 µM (inactive) | 3.92 µM (inactive) | 2.84 µM (inactive) | 24.9 µM (inactive) | 45.9 µM (inactive) | 27.9 µM (inactive) |  | 42.7 µM (inactive) | 2.81 µM (inactive) | 33.5 µM (inactive) |  |  |  |  |  |
| COC(=O)N/N=C(/Cc1occc(=O)c1O)C(=O)Nc1ccc([N+](=O)[O-])cc1[N+](=O)[O-] | > 100 µM (inactive) | > 100 µM (inactive) | > 100 µM (inactive) | > 100 µM (inactive) | > 100 µM (inactive) | > 100 µM (inactive) | > 100 µM (inactive) | > 100 µM (inactive) | > 100 µM (inactive) | > 100 µM (inactive) | > 100 µM (inactive) | > 100 µM (inactive) | > 100 µM (inactive) | > 100 µM (inactive) | > 100 µM (inactive) |  |  |  |  |  |
| COc1ccc(C2ON(c3ccccc3)CC=C2C)cc1 (stereo not given) | 62.2 µM (inactive) | 42.5 µM (inactive) | 52.4 µM (inactive) | 33.7 µM (inactive) | > 100 µM (inactive) | > 100 µM (inactive) | 43.7 µM (inactive) | 94.8 µM (inactive) | > 100 µM (inactive) | 34.4 µM (inactive) | 99.8 µM (inactive) | 34 µM (inactive) | > 100 µM (inactive) | 66.8 µM (inactive) | 66.7 µM (inactive) |  |  |  |  |  |
| COCC(O)CN1C(N)=NC(O)C1O (stereo not given) | > 100 µM (inactive) | > 100 µM (inactive) |  |  | > 100 µM (inactive) | > 100 µM (inactive) |  | > 100 µM (inactive) | > 100 µM (inactive) | > 100 µM (inactive) | > 100 µM (inactive) | > 100 µM (inactive) | > 100 µM (inactive) | > 100 µM (inactive) |  |  |  |  |  |  |
| CC(=O)OC1COC(N2C(=O)C(=O)c3cc(Br)c([N+](=O)[O-])cc32)C(OC(C)=O)C1OC(C)=O (stereo not given) | > 100 µM (inactive) | > 100 µM (inactive) | 35 µM (inactive) | 37.6 µM (inactive) | 30.2 µM (inactive) | > 100 µM (inactive) | > 100 µM (inactive) | 22.5 µM (inactive) | > 100 µM (inactive) | > 100 µM (inactive) | > 100 µM (inactive) |  | 83.6 µM (inactive) | 50.8 µM (inactive) | 77.3 µM (inactive) |  |  |  |  |  |
| COc1ccc(-c2cc(=O)c3ccccc3o2)cc1N | 49.9 µM (inactive) | 51.3 µM (inactive) | 26.3 µM (inactive) | 28.6 µM (inactive) | 34.6 µM (inactive) | 84.7 µM (inactive) | 44.8 µM (inactive) | 18.7 µM (inactive) | 60.4 µM (inactive) | 32.8 µM (inactive) | 69.3 µM (inactive) | 19.9 µM (inactive) | 36.1 µM (inactive) | 35.7 µM (inactive) | 32.8 µM (inactive) |  |  |  |  |  |
| COc1ccc(/C=[N+](\[O-])[C@H](COCc2ccccc2)c2ccccc2)cc1 | > 10 µM (inactive) | > 100 µM (inactive) | 25.2 µM (inactive) | 35.7 µM (inactive) | 89.9 µM (inactive) |  | 15.7 µM (inactive) | > 100 µM (inactive) | 46.7 µM (inactive) | 52.1 µM (inactive) | > 100 µM (inactive) | 17.3 µM (inactive) | > 100 µM (inactive) | 77.8 µM (inactive) | 43.3 µM (inactive) |  |  |  |  |  |
| CCCC(=O)OC[n+]1ccc2c(C)c3[nH]c4ccc(OC)cc4c3c(C)c2c1 | 0.306 µM (active) | 2.08 µM (inactive) | 0.0289 µM (active) |  | 0.23 µM (active) | 0.222 µM (active) | 0.0296 µM (active) | 1.16 µM (inactive) |  | 0.0931 µM (active) | 0.391 µM (active) | 1.74 µM (inactive) | 0.092 µM (active) | 0.498 µM (active) | 0.0552 µM (active) |  |  |  |  |  |
| COc1cc(C2C(C(=O)Nc3cc(F)c(F)cc3F)=C(C)NC(C)=C2C(=O)Nc2cc(F)c(F)cc2F)ccc1O | 24.6 µM (inactive) | 17.9 µM (inactive) | 11.3 µM (inactive) | 14 µM (inactive) | 15.2 µM (inactive) | 17.7 µM (inactive) | 16.3 µM (inactive) | 2.36 µM (inactive) | 29.2 µM (inactive) | 29 µM (inactive) | 23.6 µM (inactive) | 8.04 µM (inactive) | 25.4 µM (inactive) | 21.5 µM (inactive) |  |  |  |  |  |  |
| CCCCN1C(=O)C2c3[nH]c4ccccc4c3C3CCCCC3C2C1=O.CCCCN1C(=O)C2c3[nH]c4ccccc4c3[C@@H]3CCCCC3C2C1=O (stereo not given) | 13.9 µM (inactive) |  | 5.69 µM (inactive) | 16.4 µM (inactive) | 10.9 µM (inactive) | 35.9 µM (inactive) |  | 7.11 µM (inactive) | 23.4 µM (inactive) | 28.8 µM (inactive) | 16.4 µM (inactive) | 14.8 µM (inactive) | 11.8 µM (inactive) | 13.6 µM (inactive) | 9.42 µM (inactive) |  |  |  |  |  |
| O=c1cccccc1NCCCNc1cccccc1=O | > 100 µM (inactive) | > 100 µM (inactive) | > 100 µM (inactive) | > 100 µM (inactive) | > 100 µM (inactive) | 15.9 µM (inactive) | > 100 µM (inactive) |  | > 100 µM (inactive) | 88.3 µM (inactive) | > 100 µM (inactive) | > 100 µM (inactive) | > 100 µM (inactive) | > 100 µM (inactive) | > 100 µM (inactive) |  |  |  |  |  |
| CC(=O)OC(=O)O/C=C\CCl | > 100 µM (inactive) | > 100 µM (inactive) | 38 µM (inactive) | 93.8 µM (inactive) |  | > 100 µM (inactive) | > 100 µM (inactive) | > 100 µM (inactive) | > 100 µM (inactive) |  | > 100 µM (inactive) | > 100 µM (inactive) | > 100 µM (inactive) | > 100 µM (inactive) | > 100 µM (inactive) |  |  |  |  |  |
| C/C(CC(=O)Nc1ccc(Cl)c(Cl)c1)=N/NC(=O)C[n+]1ccccc1 | > 100 µM (inactive) | > 100 µM (inactive) | 94.2 µM (inactive) | 85.3 µM (inactive) | 18.8 µM (inactive) | > 100 µM (inactive) | 32.3 µM (inactive) |  | > 100 µM (inactive) | > 100 µM (inactive) | > 100 µM (inactive) | > 100 µM (inactive) | > 100 µM (inactive) | 66.7 µM (inactive) | > 100 µM (inactive) |  |  |  |  |  |
| Cc1ccc(C(=O)c2[nH]c(Nc3ccc(Cl)cc3)c(C(=S)Nc3ccccc3)c2N)cc1 | 2.27 µM (inactive) | 18.7 µM (inactive) | 12.1 µM (inactive) | 8.65 µM (inactive) | 3.91 µM (inactive) | 13.1 µM (inactive) | 5.05 µM (inactive) | 2.94 µM (inactive) | 5.61 µM (inactive) | 4.43 µM (inactive) | 3.01 µM (inactive) | 9.14 µM (inactive) | 4.68 µM (inactive) |  | 3.72 µM (inactive) | 4.37 µM (inactive) | 10.1 µM (inactive) | 8.04 µM (inactive) | 15.5 µM (inactive) | 6.73 µM (inactive) |
| CCCCCCCC/C=C\CCCCCCCCNc1ccn(C2OC(COP(=O)(O)OC3CC(n4cc(F)c(=O)[nH]c4=O)OC3CO)C(O)C2O)c(=O)n1 (stereo not given) | < 0.0194 µM (active) | > 37.7 µM (inactive) | 0.471 µM (active) | < 0.0215 µM (active) | 0.122 µM (active) | > 100 µM (inactive) | 0.0509 µM (active) | 1.7 µM (inactive) | 0.376 µM (active) | 4.19 µM (inactive) | 2.89 µM (inactive) | 0.198 µM (active) | 0.329 µM (active) |  | 0.329 µM (active) | 3.36 µM (inactive) | > 100 µM (inactive) | 20.9 µM (inactive) | 36.3 µM (inactive) | > 55.1 µM (inactive) |
